We go through eight compounds from patent publication US5620955A, “Bombesin receptor antagonists and uses thereof” (Peptide Technologies Corporation, priority 1993, dated 1997).

Like-named read-outs stand apart in the source and are kept apart here. Positions of bridges follow the written chain, without caps; N, C: chain ends. Non-standard residues stand in square brackets, D forms with d. Residues, ends and D or L forms follow the SMILES beside them. *: point of attachment. Chlorambucil = O=C(CCCc1ccc(N(CCCl)CCCl)cc1)*; X1 = O=C(CCCc1ccc(N(CCO)CCCl)cc1)*; 1Naphthoyl = O=C(c1cccc2ccccc12)*; Bz = O=C(c1ccccc1)*; NHPr = CCCN* Some results are limits rather than exact numbers.

Assay [1] concerns the target T1, BBN receptor (Homo sapiens, UniProt P30550).
T1 construct: endogenous in cells; host or cells: NCI-H345 (human SCLC)
Put plainly: Inhibition of [125I]Tyr4-BBN binding to SCLC NCI-H345 membranes. The following applies: for inhibition of BBN binding to SCLC membranes (in words): radiolabelled Tyr4-BBN. As for the experimental part: (§1) Acinar cells from rat pancreas bind BBN and secrete amylase when treated with BBN. The ability of potential antagonists to bind to rat pancreatic acinar cells was examined by determining the ability of the compounds to inhibit the binding of radiolabelled BBN. […] Finally, antagonist activity of the compounds was determined by measuring the ability of compounds to prevent the release of amylase from cells in response to BBN. […] This cell line was also used to evaluate biological activities of potential antagonists derived from the structures of BBN and GRP. The binding of synthetic compounds to cellular membranes prepared from NCI-H345 was determined. The ability of potential antagonists to block the BBN-stimulated increase in cytosolic levels of Ca^++ was determined. Compounds showing inhibition were further tested to determine the effect on growth of two human SCLC cell lines in culture.
Potential antagonists were also evaluated for their ability to inhibit the binding of radiolabelled Tyr^4 -BBN to SCLC membranes and for their effects on BBN signal transduction in SCLC cells.

Assay [2] concerns the target T1, BBN receptor. Put plainly: Cytosolic Ca++ assay in SCLC cell line NCI-H345. In kind it is cell-based. More on the design: key: antagonized (A); had no effect (--) on the ability of 10 nM BBN to. The following applies: compound 10 μM; 10 nM BBN elevation of cytosolic Ca++. Here is the method: SCLC cell line NCI-H345 was cultured for two days in medium containing 10^-8 M hydrocortisone, 5 μg/ml bovine insulin, 10 μg/ml human transferrin, 10^-8 M β-estradiol and 3×10^-8 M Na2 SeO3. The cells were harvested and washed, resuspended in medium containing 20 mM HEPES, pH 7.4, and loaded with 5 μM Fura 2 AM (Calbiochem) for 30 minutes. The cells were centrifuged at 150×g for 10 minutes to remove extracellular dye and resuspended and placed in a spectrofluorometer cell equipped with stirring and 37° C. heating. The emission was read at 510 nm with 340 excitation (Moody et al., Biochem. Biophys. Res. Commun. 147:189 (1987)). The response of compounds at 5 μM was measured initially as a screen and compared to that of 10 nM BBN. The response of varying concentrations of peptide (nM to μM) in the presence of 10 nM BBN was determined.

For a further assay, the system named is NCI-H345. Put plainly: Clonagenic assay, colony formation of NCI-H345. It counts as cell-based, human. On the set-up: key to Growth: significantly reduced (R); had no effect (--) on th. The following applies: compound 1 μM; clonal growth of a human tumor cell line. As for the experimental part:
The effect of 1 to 1000 nM concentration of peptides on growth of NCI-H345 colonies stimulated by 10 nM BBN was measured in the agarose cloning system (Mahoud et al., Cancer Res. 51:1798 (1991); Staley et al., Peptides 12:145-149 (1991)). […] On the day of the assay, cells were harvested, centrifuged and suspended in the buffer. The agarose cloning system consisted of 3 ml of 0.5% agarose in SIT medium with 5% fetal bovine serum in six well plates. To a top layer, consisting of 3 ml HITES medium in 0.3% agarose, the peptides at two times concentration and 6×10^4 single viable cells, were added. For each peptide concentration, triplicate wells were plated. After two weeks, 1 ml of 0.1% p-iodo-nitrotetrazolium violet was added, and after 16 hours at 37° C., the plates were screened for colony formation; the number of colonies larger than […] in diameter were counted using a Bausch and Lomb Omnicon image analysis system.

The target of assay [3] is T2, BBN receptor (Rattus norvegicus, UniProt P52500). Put plainly: Stimulation of amylase release from rat pancreatic acinar cells by the compound alone (agonist test). In kind it is cell-based.
In assay [4] the target is T2, BBN receptor. Put plainly: Inhibition of bombesin-stimulated amylase release from rat pancreatic acini. In kind it is cell-based. The following applies: half-maximal inhibition of bombesin-stimulated amylase release from acini; mean ± s.e.m. Here is the method: as §1
The incubation solution contained 1% albumin and the wash solution contained 0.2% albumin. The solution was equilibrated with 100% O2. Dispersed acini were suspended in 20 ml of solution. Samples of 1 ml were incubated in the presence of various concentrations of compounds in the presence of 1 nM bombesin. After the first incubation the samples were washed 4 times with wash solution at 4° C. The acini were then resuspended in fresh incubation buffer and incubated at 37° C. Amylase release was measured by the Phadebas reagent. Amylase secretion during a given incubation was expressed as the percentage of amylase present in the acini at the beginning of that incubation that was released into the extracellular medium.

The target of assay [5] is T2, BBN receptor. Put plainly: Inhibition of 125I bombesin binding to rat pancreatic acinar cells. The following applies: inhibition of 125I bombesin binding; IC50 divided by radioligand concentration. Here is the method:
Inhibition of equilibrium binding of ^125 I labeled bombesin to acinar membranes by the compounds was determined. The Kd was determined by dividing IC50 (the concentration of synthetic compound required to inhibit 50% of the specific binding of labelled BBN) by the concentration of radiolabeled peptide.

[6] abbreviates: 50% inhibition of specific [125I]Tyr4-BBN binding, NCI-H345, read-out: IC50.

T1 sequence (P30550 whole entry): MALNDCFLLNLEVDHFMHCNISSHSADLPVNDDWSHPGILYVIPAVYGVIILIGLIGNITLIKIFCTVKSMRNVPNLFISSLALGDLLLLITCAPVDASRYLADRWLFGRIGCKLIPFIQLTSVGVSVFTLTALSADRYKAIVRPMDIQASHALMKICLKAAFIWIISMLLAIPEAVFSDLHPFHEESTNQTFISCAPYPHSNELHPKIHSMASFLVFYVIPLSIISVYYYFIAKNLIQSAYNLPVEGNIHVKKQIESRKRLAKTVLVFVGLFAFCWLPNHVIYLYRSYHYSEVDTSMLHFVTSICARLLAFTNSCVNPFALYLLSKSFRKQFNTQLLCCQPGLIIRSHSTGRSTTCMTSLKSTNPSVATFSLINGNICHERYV
T2 sequence (P52500 whole entry): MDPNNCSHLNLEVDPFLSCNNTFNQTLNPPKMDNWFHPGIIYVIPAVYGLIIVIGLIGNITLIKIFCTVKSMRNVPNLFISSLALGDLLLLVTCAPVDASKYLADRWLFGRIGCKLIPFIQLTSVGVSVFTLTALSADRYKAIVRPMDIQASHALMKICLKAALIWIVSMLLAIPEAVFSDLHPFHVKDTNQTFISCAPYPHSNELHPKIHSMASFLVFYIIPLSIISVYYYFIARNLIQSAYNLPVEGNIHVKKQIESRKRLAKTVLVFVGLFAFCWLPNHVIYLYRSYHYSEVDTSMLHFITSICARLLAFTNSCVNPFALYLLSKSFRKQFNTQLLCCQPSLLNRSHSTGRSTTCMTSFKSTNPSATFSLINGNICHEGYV

In general, IC50 refers to the midpoint of a concentration-inhibition curve. In the case of `CCCNC(=O)[C@H]1CCC(=O)NCCCC[C@H](NC(C)=O)C(=O)N[C@@H](Cc2c[nH]c3ccccc23)C(=O)N[C@@H](C)C(=O)N[C@@H](C(C)C)C(=O)N[C@H](C)C(=O)N[C@@H](Cc2c[nH]cn2)C(=O)N1` [PCT 812] (Ac-KWAV[dA]H[dE]-NHPr; lactam 1-7), the IC50 on BBN receptor [1] (setting [6]) was 4 µM. The “inhibition of BBN binding to SCLC membranes (in words)” value at BBN receptor [1] is recorded as “only weak inhibition of BBN binding”. Further, the “Ca++ effect” value at BBN receptor [2] was “A”. The Growth entry in the assay on NCI-H345 is “R”.
As usually defined, the EC50 is the concentration giving half of the maximal effect. A word on the Kd: it is the concentration at which binding is half-saturated. In turn, `CC(=O)N[C@H]1CCCCNC(=O)[C@H](CC(C)C)NC(=O)[C@H](Cc2c[nH]cn2)NC(=O)[C@H](C)NC(=O)[C@H](C(C)C)NC(=O)[C@H](C)NC(=O)[C@H](Cc2c[nH]c3ccccc23)NC(=O)[C@H](CCC(N)=O)NC(=O)[C@H](CC(N)=O)NC1=O` [PTC 803] (Ac-KNQWAVAHL; lactam 1-C) displayed an EC50 on BBN receptor [3] of more than 3 µM. Besides, the IC50 is more than 3 µM at BBN receptor [4] and more than 10 µM on BBN receptor [1] (setting [6]). The compound also gave a Kd at BBN receptor [5] of more than 3 µM. At BBN receptor [2], the “Ca++ effect” value is “--”.
As to `CC(=O)N[C@@H]1CCCCNC(=O)[C@H](CC(C)C)NC(=O)[C@H](Cc2c[nH]cn2)NC(=O)[C@@H](C)NC(=O)[C@H](C(C)C)NC(=O)[C@H](C)NC(=O)[C@H](Cc2c[nH]c3ccccc23)NC(=O)[C@H](CCC(N)=O)NC(=O)[C@H](CC(N)=O)NC1=O` [PTC 804] (Ac-[dK]NQWAV[dA]HL; lactam 1-C), the EC50 on BBN receptor [3] was more than 3 µM. The IC50 against BBN receptor [4] was more than 3 µM; at BBN receptor [1] (setting [6]) it was 6 µM. At BBN receptor [5], this compound showed a Kd of more than 3 µM. Besides, the “inhibition of BBN binding to SCLC membranes (in words)” value at BBN receptor [1] is listed as “only weak inhibition of BBN binding”. For the same compound, the “Ca++ effect” value on BBN receptor [2] was “--”.
As to `CC(=O)N[C@H]1CCCCNC(=O)[C@H](CC(C)C)NC(=O)[C@H](Cc2c[nH]cn2)NC(=O)[C@@H](C)NC(=O)[C@H](C(C)C)NC(=O)[C@H](C)NC(=O)[C@H](Cc2c[nH]c3ccccc23)NC(=O)[C@H](CCC(N)=O)NC(=O)[C@H](CC(N)=O)NC1=O` [PTC 806] (Ac-KNQWAV[dA]HL; lactam 1-C), the EC50 on BBN receptor [3] is more than 3 µM. Further, at BBN receptor [4], the IC50 is more than 3 µM. The equilibrium dissociation constant (Kd) on BBN receptor [5] is more than 3 µM.
`CC(C)C[C@@H]1NC(=O)[C@H](Cc2c[nH]cn2)NC(=O)[C@@H](C)NC(=O)[C@H](C(C)C)NC(=O)[C@H](C)NC(=O)[C@H](Cc2c[nH]c3ccccc23)NC(=O)[C@H](CCC(N)=O)NC(=O)[C@H](CC(N)=O)NC(=O)[C@H](NC(=O)c2ccccc2)CCCCNC1=O` [PTC 807] (Bz-[dK]NQWAV[dA]HL; lactam 1-C): the “Ca++ effect” value at BBN receptor [2] was “--”.
For the compound `CC(C)C[C@@H]1NC(=O)[C@H](Cc2c[nH]cn2)NC(=O)[C@@H](C)NC(=O)[C@H](C(C)C)NC(=O)[C@H](C)NC(=O)[C@H](Cc2c[nH]c3ccccc23)NC(=O)[C@H](CCC(N)=O)NC(=O)[C@H](CC(N)=O)NC(=O)[C@H](NC(=O)c2cccc3ccccc23)CCCCNC1=O` [PTC 808] (1Naphthoyl-[dK]NQWAV[dA]HL; lactam 1-C), at BBN receptor [2], the “Ca++ effect” value was “--”.
On to `CCOC(=O)[C@H](CC(C)C)NC(=O)[C@H](Cc1c[nH]cn1)NC(=O)[C@@H](C)NC(=O)[C@@H](NC(=O)[C@H](C)NC(=O)[C@H](Cc1c[nH]c2ccccc12)NC(=O)[C@H](CCC(N)=O)NC(=O)[C@H](CC(N)=O)NC(=O)CCCc1ccc(N(CCO)CCCl)cc1)C(C)C` [PTC 815B] (X1-NQWAV[dA]HL-OEt), for which the IC50 at BBN receptor [1] is 0.045 µM.
The compound `CCOC(=O)[C@H](CC(C)C)NC(=O)[C@H](Cc1c[nH]cn1)NC(=O)[C@@H](C)NC(=O)[C@@H](NC(=O)[C@H](C)NC(=O)[C@H](Cc1c[nH]c2ccccc12)NC(=O)[C@H](CCC(N)=O)NC(=O)[C@H](CC(N)=O)NC(=O)CCCc1ccc(N(CCCl)CCCl)cc1)C(C)C` [PTC 815] (Chlorambucil-NQWAV[dA]HL-OEt) had an EC50 at BBN receptor [3] of more than 3 µM. The values for the IC50 against BBN receptor [4] and at BBN receptor [1] were 0.0085 ± 0.0005 µM and 0.035 µM, respectively. Further, the Kd on BBN receptor [5] turned out to be 0.0107 ± 0.0034 µM.
